# Data reported in patent US7319029B2, “Lipase from Geobacillus sp. strain T1” (Universiti Purta Malaysia, priority 2004, dated 2008).
# Where a SMILES comes first, the peptide text is derived from it. [ ]: non-standard residue; d: D form. The star is where a group is joined. Sta = CC(C)C[C@H](N)[C@@H](O)CC(=O)O; Isovaleryl = CC(C)CC(=O)*
# Key:
# T1 mature lipase [1] = experiment: Effect of metal ions, surfactants and inhibitors on lipase activity; format: biochemical, Geobacillus sp. strain T1; conditions: for Effect of metal ion on lipase activity: 1 mM, after 30 min of treatment; for Effect of metal ion on lipase activity / Effect of inhibitor on lipase activity / Inhibition of lipase activity: 50° C.; for Effect of inhibitor on lipase activity: 5 mM (Pepstatin 1 mM), 30 min; for Inhibition of lipase activity: metal ion 1 mM, after 30 min; for Effect of surfactant on lipase activity: 0.1%
# Method: The T1 lipase was tested at temperatures ranging from 40° C. to 80° C. at 5° C. intervals for 30 min for enzyme activity. The thermostability test was conducted at various temperatures for different hours. Recombinant T1 lipase was also kept at a wide range of pH values ranging from pH 4-12 for pH activity and stability determination. The buffer systems used were 50 mM acetate buffer (pH 4-6), potassium phosphate buffer (pH 6-8), Tris-HCl buffer (pH 8-9), glycine-NaOH buffer (pH 9-11), and Na2HPO3/NaOH buffer (pH 11-12). The effect of effectors (metal ions, surfactants) and inhibitors were studied at a concentration of 1 mM and 5 mM, respectively at 50° C. for 30 min with an exceptional for pepstatin (1.0 mM).
# The effect of metal ion at final concentration of 1 mM was tested by treatment at 50° C. for 30 min. […] The effect of surfactants on lipase activity on lipase activity was studied at concentration of 0.1% (FIG. 6).
# The effect of inhibitors on lipase activity on several metal chelating agent, reducing agents, serine and aspartate inhibitors were used to study the inhibition effect to T1 mature lipase.
# T1 mature lipase [2] = experiment: as above; format: biochemical, Geobacillus sp. strain T1; conditions: 1 mM, 50° C., after 15 min of treatment
# P1 lipase = conditions: 10 mM of PMSF; cited from earlier work
Molecule,Effect of metal ion on lipase activity (T1 mature lipase [1]),Effect of inhibitor on lipase activity (T1 mature lipase [1]),also measured
[Mg+2] [Mg^2+],stabilizing effect,,
OCCS [β-mercaptoethanol],,little inhibition effect,
[Fe+2] [Fe^2+],,,Inhibition of lipase activity (T1 mature lipase [1]): 60%
[Mn+2] [Mn^2+],stabilizing effect,,Effect of metal ion on lipase activity (T1 mature lipase [2]): slightly enhanced
[Zn+2] [Zn^2+],stabilizing effect,,
[Na+] [Na^+],,,Effect of metal ion on lipase activity (T1 mature lipase [2]): slightly enhanced
O[C@@H](CS)[C@@H](O)CS [DTT],,little inhibition effect,
O=S(=O)(F)Cc1ccccc1 [PMSF],,strongly inhibited,Inhibition of P1 lipase (P1 lipase): 77%
CC(C)CC(=O)N[C@H](C(=O)N[C@H](C(=O)N[C@@H](CC(C)C)[C@@H](O)CC(=O)N[C@@H](C)C(=O)N[C@@H](CC(C)C)[C@@H](O)CC(=O)O)C(C)C)C(C)C [Pepstatin] (Isovaleryl-VV[Sta]A[Sta]-OH),,strongly inhibited,
[Ca+2] [Ca^2+],stabilizing effect,,
O=C(O)CN(CCN(CC(=O)O)CC(=O)O)CC(=O)O [EDTA],,slightly effect,
[Cu+2] [Cu^2+],,,Inhibition of lipase activity (T1 mature lipase [1]): 52%
[K+] [K^+],stabilizing effect,,Effect of metal ion on lipase activity (T1 mature lipase [2]): slightly enhanced
Tween,,,Effect of surfactant on lipase activity (T1 mature lipase [1]): obvious enhancement; Effect of surfactant on lipase activity (T1 mature lipase [1]; listed as Tween 20-80): enhancement effect
